Reference: the supplement of paper PMC10307832

Columns and labels:
Test in all cases: relative viability (nuclei count vs DMSO), 5 days (fraction); higher = more cells survive
Zosuquidar + Vorinostat = compound: O[C@@H](COc1cccc2ncccc12)CN1CCN([C@@H]2c3ccccc3[C@@H]3[C@H](c4ccccc42)C3(F)F)CC1 [Zosuquidar] + O=C(CCCCCCC(=O)Nc1ccccc1)NO [Vorinostat] (partner 1 µM)
Method in brief: (§1)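 Lung cancer cell lines, seeded in 1536-well plates, were treated the following day by pin tool with a single drug or with five library-drug doses (not always all listed) in √10 steps on top of a fixed anchor-drug dose. Cells were fixed and nuclei stained in one step after 5 days, and nuclei were counted. Relative viability is the nuclei count for treated wells divided by that for vehicle wells, reported as medians of duplicate plates.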

Kobe2602 + Crizotinib = compound: C1=CC(=CC=C1NC(=S)NNC2=C(C=C(C=C2[N+](=O)[O-])C(F)(F)F)[N+](=O)[O-])F [Kobe2602] + C[C@@H](Oc1cc(-c2cnn(C3CCNCC3)c2)cnc1N)c1c(Cl)ccc(F)c1Cl [Crizotinib] (partner 1 µM)
Method in brief: as §1

[1] = compound: COc1cc2nccc(Oc3ccc(NC(=O)C4(C(=O)Nc5ccc(F)cc5)CC4)cc3)c2cc1OC [Cabozantinib] + CC(=O)c1c(C)c2cnc(Nc3ccc(N4CCNCC4)cn3)nc2n(C2CCCC2)c1=O [Palbociclib] (partner 0.5 µM)
Method in brief: as §1

Cell Line | relative viability (Zosuquidar + Vorinostat; first compound 0.01 µM) | relative viability (Zosuquidar + Vorinostat; first compound 0.03162 µM) | relative viability (Zosuquidar + Vorinostat; first compound 0.1 µM) | relative viability (Zosuquidar + Vorinostat; first compound 0.3162 µM) | relative viability (Zosuquidar + Vorinostat; first compound 1 µM) | relative viability (Kobe2602 + Crizotinib; first compound 0.2 µM) | relative viability (Kobe2602 + Crizotinib; first compound 0.6325 µM) | relative viability (Kobe2602 + Crizotinib; first compound 2 µM) | relative viability (Kobe2602 + Crizotinib; first compound 6.325 µM) | relative viability (Kobe2602 + Crizotinib; first compound 20 µM) | relative viability ([1]; first compound 0.02 µM) | relative viability ([1]; first compound 0.06325 µM) | relative viability ([1]; first compound 0.2 µM) | relative viability ([1]; first compound 0.6325 µM) | relative viability ([1]; first compound 2 µM)
COR-L 105 | 0.961 | 0.826 | 0.777 | 0.891 | 0.875 | 0.85 | 0.838 | 0.653 | 0.966 | 0.831 | 0.409 | 0.4 | 0.378 | 0.411 | 0.413
NCI-H2009 | 0.688 | 0.658 | 0.654 | 0.773 | 0.664 | 1.02 | 1.03 | 1.01 | 1.05 | 1.03 | 0.209 | 0.25 | 0.269 | 0.277 | 0.141
NCI-H1563 |  |  |  |  |  | 0.844 | 0.885 | 0.749 | 0.939 | 0.85 |  |  |  |  | 
RERF-LC-KJ | 0.728 | 0.707 | 0.694 | 0.772 | 0.683 | 0.781 | 0.839 | 0.836 | 0.81 | 0.756 | 1.03 | 1.2 | 0.652 | 0.568 | 1.07
NCI-H1703 |  |  |  |  |  | 0.775 | 0.66 | 0.56 | 0.829 | 0.501 |  |  |  |  | 
NCI-H358 | 0.662 | 0.8 | 0.634 | 0.646 | 0.639 | 0.598 | 0.597 | 0.581 | 0.746 | 0.652 | 0.112 | 0.138 | 0.163 | 0.135 | 0.135
NCI-H2085 | 0.807 | 0.753 |  | 0.907 | 0.767 | 0.843 | 0.823 | 0.904 | 0.855 | 0.723 | 0.519 | 0.469 | 0.524 | 0.476 | 0.498
EBC-1 |  |  |  |  |  | 0.225 | 0.239 | 0.185 | 0.203 | 0.216 |  |  |  |  | 
NCI-H1792 |  |  |  |  |  | 0.965 | 0.928 | 0.985 | 0.726 | 1.05 |  | 0.707 | 0.668 | 0.679 | 0.579
NCI-H2405 | 1.07 | 0.963 | 1.01 | 1.05 | 0.31 | 0.853 | 0.916 | 0.827 | 0.91 | 0.786 | 0.509 | 0.568 | 0.568 | 0.569 | 0.519
ABC-1 | 1.17 | 1.04 | 1 | 1.13 | 0.81 | 1 | 1.04 | 1.06 | 1.21 | 1.08 |  | 0.734 | 0.707 | 0.855 | 0.654
201T | 0.886 | 0.942 | 0.799 | 0.997 | 0.962 | 1.07 | 1.02 | 1.04 | 1.02 | 1.1 | 0.352 | 0.342 | 0.332 | 0.371 | 0.384
NCI-H1755 | 0.657 | 0.883 | 0.694 | 0.845 | 0.729 | 0.842 | 0.851 | 0.821 | 0.83 | 0.884 | 0.471 | 0.454 | 0.461 | 0.43 | 0.446
NCI-H650 | 0.452 | 0.414 | 0.397 | 0.577 | 0.435 | 0.683 | 0.692 | 0.854 | 0.849 | 0.636 | 0.343 | 0.325 | 0.339 | 0.317 | 0.296
NCI-H1651 | 0.576 | 0.604 | 0.471 | 0.607 | 0.501 | 0.908 | 0.887 | 0.978 | 0.847 | 0.859 | 0.512 | 0.561 | 0.52 | 0.495 | 0.495
NCI-H1437 | 0.849 | 0.957 | 0.851 | 0.857 | 0.832 | 0.862 | 0.918 | 0.902 | 0.91 | 0.9 | 0.312 | 0.339 | 0.296 | 0.344 | 0.302
NCI-H1975 | 0.745 | 0.681 | 0.75 | 0.746 | 0.751 | 1.01 | 0.959 | 0.838 | 0.897 | 0.779 | 0.533 | 0.777 | 0.647 | 0.418 | 0.557
BEN | 0.548 | 0.579 | 0.574 | 0.662 | 0.553 | 0.948 | 0.727 | 0.894 | 0.843 | 0.819 | 0.525 | 0.507 | 0.47 | 0.425 | 0.463
NCI-H460 | 0.658 | 0.747 | 0.687 | 0.776 | 0.739 | 0.855 | 0.905 | 0.922 | 0.893 | 0.729 | 0.168 | 0.243 | 0.245 | 0.187 | 0.165
NCI-H1944 | 0.524 | 0.528 | 0.543 | 0.672 | 0.535 | 1.01 | 1.19 | 1.14 | 1.09 | 1.14 | 0.357 | 0.315 | 0.317 | 0.299 | 0.349
NCI-H1648 | 0.423 | 0.422 | 0.242 | 0.387 | 0.434 |  |  |  |  |  | 0.27 | 0.259 |  | 0.281 | 0.299
A549 |  |  |  |  |  | 0.759 | 0.723 | 0.781 | 0.764 | 0.8 |  |  |  |  | 
NCI-H1299 |  |  |  |  |  | 0.922 | 0.938 | 0.93 | 0.952 | 0.925 |  |  |  |  | 
NCI-H1793 | 0.745 |  |  | 1.06 | 0.629 |  |  |  |  |  | 0.338 | 0.313 |  | 0.277 | 0.252
NCI-H522 | 0.909 | 0.796 | 0.927 | 0.887 | 0.871 |  |  |  |  |  | 0.885 | 0.966 | 1.06 | 1.12 | 0.905
Calu-6 |  |  |  |  |  | 0.84 | 0.78 | 0.786 | 0.744 | 0.813 |  |  |  |  | 
NCI-H1395 | 0.746 | 0.783 |  | 1 | 0.698 |  |  |  |  |  | 0.631 | 0.79 | 0.626 | 0.642 | 0.54
NCI-H596 | 0.555 | 0.637 | 0.709 | 0.761 | 0.661 | 0.723 | 1.03 | 0.944 | 1.21 | 1 |  |  |  |  | 
